Test results reported in patent US20030013690A1, “Increasing phosphorus uptake from the gut of dairy cows by supplementing 1alpha-hydroxylated vitamin D compounds” (priority 2001, published 2003).

Tests used:
Format in all cases: in vivo
[1] = tested on: lactating dairy cows; assay: Dairy cow efficacy trial: P and Ca concentrations in urine
From the text: (§1) Eight multiparous lactating dairy cows (about 150 days in milk at start of the experiment) were blocked into two groups according to milk yield. Cows in each block were assigned randomly to four different treatments. The experimental design was a 4×4 Latin Square. Each period was four weeks in length. The first three weeks were used as an adaptation period, and measurements were taken during the last week of each period.
(§2) The four treatments were:
(§3) 1) High P diet. Dietary P at 0.47% (DM basis)
(§4) 2) Diet 1 plus 1-α-OHD3 (75 μg/cow/day)
(§5) 3) Low P diet. Dietary P at 0.35% (DM basis)
(§6) 4) Diet 3 plus 1-α-OHD3 (75 μg/cow/day).
(§7) During the last two days of each period, six urine samples were collected at 8 am, 4 pm, and 11 pm on the first day and 12 noon, 8 pm, and 6 am on the second day. Urine samples were then composited for phosphorus, calcium, and creatinine analysis. Creatinine was measured to enable an estimate of urine output. Milk samples were obtained during four days of each period. The milk sample was split; one-half was mixed with a preservative, and the other half was refrigerated without a preservative. The samples with preservative were analyzed for milk composition by Wisconsin Ag Source Milk Analysis Laboratory (Menomonie, Wis.), and the samples without preservative were composited according to milk yield and analyzed for mineral composition in the Soil and Plant Analysis Laboratory, Department of Soil Science, University of Wisconsin-Madison.

[2] = tested on: lactating dairy cows; assay: Dairy cow efficacy trial: feed intake, fecal P excretion, P utilization
From the text: as §1, §2, §3, §4, §5, §6
The diets (Table 1) were fed ad libitum as a total mixed ration once daily. The cows were housed in individual tie stalls. Daily feed offered and refused was recorded for individual cows. Feed refusals were restricted to 10% of intake on an as-fed basis. Daily samples of silage and refusals were composited weekly for chemical analysis. Samples of individual feed ingredients were collected once weekly. The dry matter content of feed ingredients was determined by oven drying at 60° C. for 48 hr. Diet formulations were adjusted weekly, if necessary, to account for changes in dry matter content of diet ingredients. All of the feed ingredients were analyzed for chemical composition. Alfalfa and corn silage were analyzed weekly for neutral detergent fiber (NDF), acid detergent fiber (ADF), and crude protein (CP). High moisture ear corn (HMEC), soybean meal (SBM), roasted soybean meal (RSB), and blood meal (BM) were composited every four weeks (one sample per period) and analyzed for CP.
Feed DM digestibility was determined using Yb as an external marker. A Yb solution, prepared by dissolving 2.24 g of YbCl3 (1 g of Yb) in 30 ml of water was sprayed onto 500 g of alfalfa silage (DM basis). The Yb-marked alfalfa silage was mixed into the total mixed ration to give 40 mg of Yb/kg of dietary DM. The total mixed ration labeled with Yb was fed for nine days. During the last two days of Yb feeding (last two days of each period), eight fecal grab samples were collected from each cow at 7 am, 12 noon, 6 pm, and 11 pm on the first day and at 9 am, 3 pm, 9 pm, and 5 am on the second day. Fecal samples were dried at 60° C. for 72 h and ground through a 2-mm Wiley mill screen. Fecal samples were dry-ashed in duplicate (Combs and Satter, 1992). During the last four days of each period, feed refusals for each cow were collected and composited into one sample per cow per period. These samples were dry-ashed in the same way as feces, and analyzed for Yb. Concentrations of Yb (ppm) in feed, feed refusals, and fecal samples were determined by direct current plasma spectroscopy [(Combs and Satter, 1992); Spectra Metrics, Inc., subsidiary of Beckman Instruments, Inc., Andover, Mass.]. The DM digestibility (percentage) for individual cows was calculated as follows: DM digestibility (%)=(1-concentration of Yb in DM consumed/average concentration of Yb in each cow's fecal samples)100. Digestibility of dietary P in different treatments was calculated using P input-output data.

[3] = tested on: lactating dairy cows; assay: Dairy cow efficacy trial: milk yield and milk composition
From the text: as §1, §2, §3, §4, §5, §6
(§8) Cows were weighed two days in a row before the trial started and two days in a row when it finished. Daily milk weights were recorded. All cows were injected with bovine somatotropin (Posilac®). Blood samples were collected on the last day of weeks 1, 2, and 3 of each period. During week 4, blood samples were obtained on each of the last three days. Blood was obtained 5 hours after feeding from the coccygeal vein or artery in a gel and clot co-activator vacutainer. Samples were centrifuged the next day to separate the serum. Inorganic phosphorus and calcium analyses were performed on serum samples by Marshfield Laboratories, Marshfield, Wis.
as §7

[4] = tested on: lactating dairy cows; assay: Dairy cow efficacy trial: P and Ca concentrations in blood serum
From the text: as §1, §2, §3, §4, §5, §6, §8

[5] = treatment 2: high P diet (0.47% P) plus 75 μg/cow/day
[6] = treatment 4: low P diet (0.35% P) plus 75 μg/cow/day
[7] = both the high- and low-P treatments, highly significant

## C=C1/C(=C\C=C2/CCC[C@]3(C)[C@@H]([C@H](C)CCCC(C)C)CC[C@@H]23)C[C@@H](O)C[C@@H]1O [1-α-OHD3, 1α-hydroxyvitamin D3]
[1]; 75 μg/cow/day
  Effect on calcium excretion via urine: increased
[1]; high-P treatment, at 5.15 mg P per dl of urine
  Urinary P as share of dietary P intake: about 2%
[1]; [5]
  Urine calcium: 12.03 mg/dL
  Urine phosphorus: 5.15 mg/dL
[1]; [6]
  Urine calcium: 15.46 mg/dL
  Urine phosphorus: 0.40 mg/dL
[2]; 75 μg/cow/day
  Reduction in fecal P excretion due to supplementation: 14%
[2]; both the high- and low-P treatments, 75 μg/cow/day
  Reduction of phosphorus excretion in manure: about 10 g per day
[2]; daily inclusion of 75 μg in the cows' diets
  Effect on fecal P excretion: reduced
[2]; evidenced by decreased fecal P and increased serum P
  Effect on P uptake from the gut: increased
[2]; [5]
  Fecal DM P: 0.99%
  Fecal P: 71.3 g/day
  Milk and Fecal P: 109.5 g/day
[2]; [6]
  Fecal DM P: 0.77%
  Fecal P: 55.4 g/day
  Milk and Fecal P: 93.8 g/day
[3]; supplementation of 75 μg
  Effect on milk production: unaffected
[3]; [5]
  Milk yield: 36.9 kg/day
[3]; [6]
  Milk yield: 37.6 kg/day
[4]; [7]
  Effect on concentration of Ca in blood serum: increase
  Effect on concentration of P in blood serum: increase
[4]; [5]
  Blood serum calcium: 10.32 mg/dL
  Blood serum phosphorus: 8.77 mg/dL
[4]; [6]
  Blood serum calcium: 10.14 mg/dL
  Blood serum phosphorus: 7.63 mg/dL
